Here are results for 1 compound from publication doi:10.1101/2024.10.17.618876v1 (biorxiv, 2024).

The target in the assay is T1, human lysozyme (HL) (Homo sapiens, UniProt P61626).
T1 sequence (P61626 19-148): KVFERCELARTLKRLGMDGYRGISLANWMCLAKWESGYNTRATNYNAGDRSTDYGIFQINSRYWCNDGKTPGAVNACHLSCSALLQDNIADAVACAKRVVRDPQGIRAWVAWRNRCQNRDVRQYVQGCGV
In words: isothermal titration calorimetry. In kind it is binding.

On to `N=C(N)c1ccccc1` [benzamidine], for which binding was put at a Kd of 1550 nM.

The Kd is the free concentration of one partner at which half of the binding sites on the other are occupied at equilibrium, for simple one-to-one binding.
